In brackets after ≈: the same amount, converted by molar mass. Several values for one entry are separate records, joined by “and”; a condition that tells them apart may be missing. Equal entries are not always repeated. Where two headings read alike, the source gives them in different places.
Legend:
human GLUT1 = target: T1, human GLUT1 (Homo sapiens, UniProt P11166); assay: Uptake of [3H] D-glucose by L. mexicana Δlmxgt1-3 null mutants expressing GLUT1; format: cell-based; set-up: expressed in transfected cells; host or cells: Leishmania mexicana promastigotes, Δlmxgt1-3 hexose transporter null mutant; conditions: inhibition of uptake of 100 μM [3H] D-glucose, 1 min uptake assay
T1 sequence (P11166 1-492): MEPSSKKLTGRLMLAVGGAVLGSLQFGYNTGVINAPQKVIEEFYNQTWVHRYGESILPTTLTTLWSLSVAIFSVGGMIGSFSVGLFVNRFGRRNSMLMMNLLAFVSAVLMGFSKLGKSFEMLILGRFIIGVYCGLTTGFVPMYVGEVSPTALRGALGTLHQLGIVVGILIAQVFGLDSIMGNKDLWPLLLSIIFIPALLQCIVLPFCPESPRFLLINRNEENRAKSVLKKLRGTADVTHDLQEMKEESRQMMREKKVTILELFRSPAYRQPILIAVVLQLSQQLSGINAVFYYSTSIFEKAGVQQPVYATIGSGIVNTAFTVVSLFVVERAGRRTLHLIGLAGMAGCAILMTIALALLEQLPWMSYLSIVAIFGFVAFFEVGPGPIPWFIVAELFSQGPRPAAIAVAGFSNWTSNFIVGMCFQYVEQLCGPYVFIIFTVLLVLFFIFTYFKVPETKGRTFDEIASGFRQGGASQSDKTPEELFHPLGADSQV
Procedure: (§1) Glucose uptake assays employed logarithmic phase L. mexicana promastigotes of the Δlmxgt1-3 hexose transporter null mutant strain expressing either PfHT or GLUT1 from an episomal expression vector [17]. Parasites (1x10^7) were resuspended in 100 μL phosphate buffered saline, pH 7.4. Prior to uptake, parasites were pre-incubated for 5 min with inhibitor, and uptake was initiated by adding 100 μL of 200 μM [^3H] D-glucose diluted to 4.0 μCi/mL. Uptake was terminated, typically after 1 min, by centrifuging the parasites through a layer of dibutyl phthalate, as described. Control uptake assays employing [^3H] hypoxanthine, [^3H] uridine, and [^3H] L-proline were performed similarly. Analysis of kinetic data was performed using Graph Pad Prism 4.0b software (Graph Pad).

P. falciparum strain K1 = assay: Proliferation of intraerythrocytic P. falciparum K1 (SYBR Green, 72 h); format: cell-based, Plasmodium falciparum; conditions: multi-drug resistant strain K1, 72 h, read-out: Pf K1 EC50
Procedure: (§2) Two P. falciparum strains were used in this study and were provided by the MR4 Unit of the American Type Culture Collection (ATCC, Manassas, VA). Those two strains were the chloroquine sensitive strain 3D7 and the K1 strain that is resistant to chloroquine, pyrimethamine, and sulfadoxine.
(§3) Asynchronous parasites were maintained in culture based on the method of Trager. Parasites were grown in presence of fresh group O-positive erythrocytes (Key Biologics, LLC) in Petri dishes at a hematocrit of 4–6% in RPMI based media (RPMI 1640 supplemented with 0.5% AlbuMAX II, 25 mM HEPES, 25 mM NaHCO3 (pH 7.3), 100 μg/mL hypoxanthine, and 5 μg/mL gentamycin). Cultures were incubated at 37°C in a gas mixture of 90% N2, 5% O2, 5% CO2. For EC50 determinations, 20 μL of RPMI 1640 with 5 μg/mL gentamycin were dispensed per well in an assay plate (Corning 384-well microtiter plate, clear bottom, tissue culture treated, catalog no. 8807BC). 40 nL of compound, previously serially diluted in a separate 384-well white polypropylene plate (Corning, catalog no. 8748BC), was dispensed to the assay plate by hydrodynamic pin transfer (FP1S50H, V&P Scientific Pin Head) and then 20 μL of a synchronized culture suspension (1% rings, 4% hematocrit) was added to each well, thus making a final hematocrit and parasitemia of 2% and 1%, respectively. Assay plates were incubated for 72 h, and the parasitemia was determined by a method previously described: Briefly, 10 μL of the assay solution in PBS (10X SYBR Green I, 0.5% v/v triton X-100, 0.5 mg/mL saponin) was added to each well. Assay plates were shaken for 1 min, incubated in the dark for 90 min, and read with an Envision (Perkin Elmer) spectrophotometer at Ex/Em of 485 nm/535 nm. EC50s were calculated with a custom program (RISE, Robust Investigation of Screening Experiments) using a four-parameter logistic equation.

[1] = tested on: BJ cell line (human foreskin fibroblasts); assay: Mammalian cell drug susceptibility assay (Cell Titer Glo, 72 h); format: cell-based
Procedure: The BJ cell line (human foreskin fibroblasts), which express GLUT1 [26], was purchased from the ATTC and cultured according to recommendations. 1000 exponentially growing cells were plated per well (25 μL) in white polystyrene flat bottom sterile 384-well tissue culture treated plates (Corning), and incubated overnight at 37°C in a humidified 5% CO2 incubator. DMSO inhibitor stock solutions were pin-transferred (V&P Scientific) the following day. Plates were placed back in the incubator for 72 h incubation and equilibrated at room temperature for 20 min before addition of 25 μL Cell Titer Glo (Promega) to each well. Plates were shaken on an orbital shaker for 2 min at 500 rpm. Luminescence was read after 15 min on an Envision plate reader (Perkin Elmer). EC50 values were calculated with a custom program (RISE, Robust Investigation of Screening Experiments) using a four-parameter logistic equation.

PfHT = PfHT (Plasmodium falciparum, UniProt Q7KWJ5); assay: Uptake of [3H] D-glucose by L. mexicana Δlmxgt1-3 null mutants expressing PfHT; format: cell-based; set-up: expressed in transfected cells; host or cells: Leishmania mexicana promastigotes, Δlmxgt1-3 hexose transporter null mutant; conditions: for SIglucose GLUT1/PfHT (Specificity Index, IC50 for GLUT1/IC50 for PfHT): uptake of 100 μM [3H] D-glucose; for Ki: linear regression; for Vmax: glucose uptake by PfHT; for mode of inhibition of glucose uptake through PfHT: substrate saturation curves, one-way ANOVA of Vmax and Km
Chain of PfHT (Q7KWJ5 whole entry): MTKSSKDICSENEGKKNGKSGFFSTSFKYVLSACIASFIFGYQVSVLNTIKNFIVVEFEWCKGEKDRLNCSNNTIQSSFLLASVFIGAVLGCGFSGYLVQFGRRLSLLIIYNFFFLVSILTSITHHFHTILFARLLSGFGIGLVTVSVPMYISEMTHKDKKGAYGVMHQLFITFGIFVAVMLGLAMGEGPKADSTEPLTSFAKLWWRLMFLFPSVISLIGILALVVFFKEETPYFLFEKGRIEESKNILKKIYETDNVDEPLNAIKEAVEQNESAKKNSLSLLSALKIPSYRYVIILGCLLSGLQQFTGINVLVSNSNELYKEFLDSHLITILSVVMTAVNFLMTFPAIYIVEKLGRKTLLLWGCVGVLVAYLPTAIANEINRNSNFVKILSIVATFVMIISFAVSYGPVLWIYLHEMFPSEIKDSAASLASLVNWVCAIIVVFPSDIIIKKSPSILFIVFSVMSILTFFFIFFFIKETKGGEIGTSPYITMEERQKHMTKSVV
Procedure: as §1

P. falciparum strain 3D7 = assay: Proliferation of intraerythrocytic P. falciparum 3D7 (SYBR Green, 72 h); format: cell-based, Plasmodium falciparum; conditions: chloroquine sensitive strain 3D7, 72 h, read-out: Pf 3D7 EC50
Procedure: as §2, §3

Solubility assay = format: physicochemical; conditions: PBS buffer, aqueous buffer, kinetic from dmso stock, PBS pH 7.4, room temperature
Procedure: Next, 5 μL of this reference stock plate was mixed with 70 μL of 1-propanol and 75 μL of PBS (pH 7.4) to make the reference plate, and the UV spectrum (250–500 nm) of the reference plate was read. Then, 6 μL of 10 mM test compound stock was added to 600 μL of PBS, pH 7.4, in a 96-well storage plate and mixed. The storage plate was sealed and incubated at room temperature for 18 h. The suspension was then filtered through a 96-well filter plate (pION Inc.). Next, 75 μL of filtrate was mixed with 75 μL of 1-propanol to make the sample plate, and the UV spectrum of the sample plate was read. Calculations were done using μSOL Evolution software based on the area under the curve (AUC) of the UV spectrum of the sample plate and the reference plate. All compounds were tested in triplicate.

[2] = Plasmodium falciparum, K1, 72 h
[3] = Plasmodium falciparum, 3D7, 72 h
[4] = Kic (Ki for binding of inhibitor to free transporter), from plot of Km/Vmax versus [I]
[5] = Kiu (Ki for binding of inhibitor to substrate-bound transporter), from plot of 1/Vmax versus [I]

Structure (SMILES)	IC50 (human GLUT1)	EC50 (P. falciparum strain K1; [2]) [µM]	EC50 (P. falciparum strain K1) [µM]	EC50 [1] [µM]	IC50 (PfHT) [µM]	SIglucose GLUT1/PfHT (Specificity Index, IC50 for GLUT1/IC50 for PfHT) (PfHT)	EC50 (P. falciparum strain 3D7; [3]) [µM]	EC50 (P. falciparum strain 3D7) [µM]	solubility at 18 h (Solubility assay) [µM]	IC50 (PfHT; read-out: IC50 PfHT, inhibition of uptake of 100 μM [3H] D-glucose, 1 min uptake assay) [µM]	selective inhibition of PfHT versus GLUT1 (PfHT) [fold]	Ki (PfHT; [4]) [µM]	Ki (PfHT; [5]) [µM]	Vmax (PfHT; [I] 50 nM)	Vmax (PfHT; [I] 100 nM)	mode of inhibition of glucose uptake through PfHT (PfHT)	lower affinity for PfHT than Compound 1 (PfHT) [fold]	Vmax (PfHT; [I] 600 nM)	Vmax (PfHT; [I] 1000 nM)
CC1CCCCN1S(=O)(=O)c1ccc2nc(Nc3ccc(C#N)cc3)ccc2c1 (centres unmarked) [Compound 12]	2.5 µM	> 10	> 16	> 26	2.7	0.92	> 10	> 16	–	–	–	–	–	–	–	–	–	–	–
CC1CCCCN1S(=O)(=O)c1ccc2nc(Nc3ccccc3)ccc2c1 (centres unmarked) [Compound 10]	> 10 µM	> 10	12	> 25	–	–	> 10	15	0.4 (≈ 0.153 µg/mL)	> 10	–	–	–	–	–	–	–	–	–
COc1cc(Nc2ccc3cc(S(=O)(=O)N4CCCCC4C)ccc3n2)cc(OC)c1OC (centres unmarked) [Compound 1]	3.2 µM and > 3 µM	~1	0.97	> 23	0.039	82	~1	1.4	0.5 ± 0.4 (≈ 0.236 µg/mL)	–	82	0.033	0.023	280 ± 15 pmol per 10^7 cells per min	131 ± 4 pmol per 10^7 cells per min	non-competitive inhibitors	–	–	–
CC1CCCCN1S(=O)(=O)c1ccc2nc(Nc3cccc(C#N)c3)ccc2c1 (centres unmarked) [Compound 13]	30 µM	> 10	7.3	> 25	0.32	94	> 10	11	0.9 ± 1.2 (≈ 0.366 µg/mL)	–	94	0.33	0.26	–	–	non-competitive inhibitors	8	245 ± 67 pmol per 10^7 cells per min	93 ± 53 pmol per 10^7 cells per min

Reference: article PMC4404333, “Identification of Selective Inhibitors of the Plasmodium falciparum Hexose Transporter PfHT by Screening Focused Libraries of Anti-Malarial Compounds” (PLoS ONE, 2015)
